Test results published in US12605397B2, “Deoxy-cytidine or uridine derivatives for use in cancer therapies” (HEMISPHERIAN AS, priority 2019, dated 2026).

Key:
HeLa cells = assay: Survival assay (MTT), HeLa; settings: for IC50: HeLa
Experimental: (§5) Cell lines not mentioned above were grown in DMEM (Sigma, Cat.Nr. D6429) supplemented with 10% Fetal Bovine Serum and 100 U/ml penicillin 100 U/ml streptomycin. All cells were maintained in a 5% CO2, humidified, water-jacketed incubator at 37° C. Cells were passed between 70 and 90% confluence.
(§6) In a 96-well plate, 4000 cells in 100 μl of corresponding medium were seeded. The following day, drugs, diluted in DMSO, were added in 8 concentrations in triplicate. Drugs were added as a 4-fold dilution series starting from 100 μM. Cells were incubated with the drugs for 72 hours. Cell proliferation was assessed by MTT assay according to the manufacturer's protocol (ATCC, Cat. Nr. 30-1010K). Cell survival was normalized to the survival of cells treated with DMSO only. Experiment was performed three times, data represent mean of nine wells±SEM.
HeLa cells, grown as described above (Materials and Methods), were treated with 5-hydroxymethyl-2′-deoxycytidine and 5-formyl-2′-deoxycytidine. After three days of treatment with these compounds, cell survival was assessed as described above (Materials and Methods).
After three days of treatment with these compounds at a concentration of 100, 25, 6.25, 1.56, 0.39, 0.1, 0.02, or 0.006 μM, cell survival was assessed by MTT assay as described above (Materials and Methods).

U87-MG cells = assay: Survival assay (MTT), U87-MG; settings: MTT; for cytotoxicity to U87-MG cells (cell survival): up to 100 μM; for IC50: U87-MG, Glioma, Grade IV
Experimental: as §5, §6
In a 96-well plate, 4000 cells in 100 μl of corresponding medium were seeded. The following day, drugs, diluted in DMSO, were added in triplicate at a concentration of 100, 25, 6.25, 1.56, 0.39, 0.1, 0.02, or 0.006 ┘M. Cells were incubated with the drugs for 72 hours. Cell proliferation was assessed by MTT assay according to the manufacturer's protocol (ATCC, Cat. Nr. 30-1010K). Cell survival was normalized to the survival of cells treated with DMSO only. Experiment was performed three times, data represent mean of nine wells±SEM.

HCT-116 cells = assay: Survival assay (MTT), HCT-116; type: cell-based, human; settings: HCT-116, Colon Carcinoma, 72 hours, MTT
Experimental: (§1) Cells were incubated with the drugs for 72 hours.

A549 cells = assay: Survival assay (MTT), A549; type: cell-based, human; settings: A549, Lung Carcinoma, 72 hours, MTT
Experimental: (§2) Cells were passed between 70 and 90% confluence.
as §1

22Rv1 cells = assay: Survival assay (MTT), 22Rv1; type: cell-based, human; settings: 22Rv1, Prostate Carcinoma, 72 hours, MTT
Experimental: as §2, §1

NCI-N87 cells = assay: Survival assay (MTT), NCI-N87; type: cell-based, human; settings: NCI-N87, Gastric Carcinoma, 72 hours, MTT
Experimental: as §2, §1

MIA PaCa-2 cells = assay: Survival assay (MTT), MIA PaCa-2; type: cell-based, human; settings: MIA PaCa-, Pancreatic Carcinoma, 72 hours, MTT
Experimental: as §2, §1

A-498 cells = assay: Survival assay (MTT), A-498; type: cell-based, human; settings: A-498, Kidney Carcinoma, 72 hours, MTT
Experimental: as §2, §1

U937 cells = assay: Survival assay (MTT), U937; type: cell-based, human; settings: U937, Lymophoma, 72 hours, MTT
Experimental: as §2, §1

A375 cells = assay: Survival assay (MTT), A375; type: cell-based, human; settings: A375, Malignant Melanoma, 72 hours, MTT
Experimental: as §2, §1

HL-60 cells = assay: Survival assay (MTT), HL-60; type: cell-based, human; settings: HL-60, Acute Promyelocytic Leukemia, 72 hours, MTT
Experimental: as §2, §1

SK-OV-3 cells = assay: Survival assay (MTT), SK-OV-3; type: cell-based, human; settings: SK-OV-3, Ovarian Adenocarcinoma, 72 hours, MTT
Experimental: as §2, §1

MCF-7 cells = assay: Survival assay (MTT), MCF-7; type: cell-based, human; settings: MCF-7, Epithelial Adenocarcinoma (Breast), 72 hours, MTT
Experimental: as §2, §1

U2OS cells = assay: Survival assay (MTT), U2OS; type: cell-based, human; settings: Bone Osteoscarcoma, 72 hours, MTT
Experimental: as §2, §1

human cancer cell lines = assay: Survival assay, range of human cancer cell lines; type: cell-based; settings: cell lines of Table 1
Experimental: as §1
With the knowledge that 5-formyl-2′-deoxycytidine is cytotoxic to cervical carcinoma (HeLa) cells, the study was expanded in two directions: (i) a further compound was assessed: 5-carboxyl-2′-deoxycytidine; and (ii) their cytotoxic effects against a wide range of human cancer cell lines was assessed (Table 1).

glioblastoma multiforme = settings: Phase II trials (NCI 06-C-0064E); cited from earlier work
G7 cells = assay: Survival assay (MTT), G7; type: cell-based, human; settings: G7, Glioma, Grade IV, 72 hours
Experimental: (§3) Primary glioma neural stem (GNS) cells (G7, G14, G144, G166) were cultured on poly-D-lysine (Merck Millipore, Cat. Nr. A-003-E) and laminin (R&D Systems, Cat.Nr. 3446-005-01) coated plates in neural stem cell medium (50% DMEM-F12 (Thermofisher, Cat. Nr. 21041025), 50% neurobasal medium (Thermofisher, Cat. Nr. 10888-022), N2 (Life Technologies, Cat. Nr. A-003-E) and B27 supplements (Life Technologies, Cat.Nr. 12587010), 1 mM sodium pyruvate (Life Technologies, Cat.Nr. 11360-039), 2 mM glutamax (Life Technologies, Cat. Nr. 35050038), 1 mM HEPES (Fisher Scientific, Cat. Nr. BP299-1), 0.1 mM β-mercaptoethanol (Life Technologies, Cat. Nr. 31350010), 1× nonessential amino acids (Life Technologies, Cat. Nr. 11140-035), 0.006% bovine serum albumin (Sigma, Cat. Nr. A8577-10ML), 4 μg/ml heparin (Sigma, Cat. Nr. H3149-25KU), 100 U/ml penicillin, 100 μg/ml streptomycin, 20 ng/ml hEGF (R&D Systems, Cat. Nr. 236-EG-200), 10 ng/ml bFGF (Peprotech, Cat. Nr. 100-18B).
as §1

G14 cells = assay: Survival assay (MTT), G14; type: cell-based, human; settings: G14, Glioma, Grade IV, 72 hours
Experimental: as §3, §1

G26 cells = assay: Survival assay (MTT), G26; type: cell-based, human; settings: G26, Glioma, Grade IV, 72 hours
Experimental: as §2, §1

G30 cells = assay: Survival assay (MTT), G30; type: cell-based, human; settings: G30, Glioma, Grade IV, 72 hours
Experimental: as §2, §1

G144 cells = assay: Survival assay (MTT), G144; type: cell-based, human; settings: G144, Glioma, Grade IV, 72 hours
Experimental: as §3, §1

G166 cells = assay: Survival assay (MTT), G166; type: cell-based, human; settings: G166, Glioma, Grade IV, 72 hours
Experimental: as §3, §1

SF188 cells = assay: Survival assay (MTT), SF188; type: cell-based, human; settings: SF188, Glioma, Grade IV, 72 hours
Experimental: as §2, §1

U3017 cells = assay: Survival assay (MTT), U3017; type: cell-based, human; settings: U3017, Glioma, Grade IV, 72 hours
Experimental: as §2, §1

DIPG007 cells = assay: Survival assay (MTT), DIPG007; type: cell-based, human; settings: DIPG007, Glioma, Grade IV, 72 hours
Experimental: as §2, §1

U3013 cells = assay: Survival assay (MTT), U3013; type: cell-based, human; settings: U3013, Glioma, Grade IV, 72 hours
Experimental: as §2, §1

CB152 cells = assay: Survival assay (MTT), CB152; type: cell-based, human; settings: CB152, Glioma, Grade IV, 72 hours
Experimental: as §2, §1

Arpe19 cells = assay: Survival assay (MTT), Arpe19; type: cell-based, human; settings: Arpe19, Normal, Ectoderm; 72 hours, MTT
Experimental: as §1
(§4) The present inventors further investigated the extent to which these compounds kill normal human cells; low cytotoxicity against normal human cells is advantageous property for anti-cancer agents. The cytotoxicity of these compounds in various normal human cell lines was therefore investigated (Table 3). Cells were grown and the survival assay was performed as described above (Materials and Methods).

HaCat cells = assay: Survival assay (MTT), HaCat; type: cell-based, human; settings: Normal, Keratinocytes, 72 hours
Experimental: as §2, §1, §4

MRC5 cells = assay: Survival assay (MTT), MRC5; type: cell-based, human; settings: MRC5, Normal, Lung; 72 hours, MTT
Experimental: as §2, §1, §4

Buffy A cells = assay: Survival assay (MTT), Buffy A; type: cell-based, human; settings: Normal, Bone Marrow, 72 hours
Experimental: as §2, §1, §4

Buffy C cells = assay: Survival assay (MTT), Buffy C; type: cell-based, human; settings: Normal, Bone Marrow, 72 hours
Experimental: as §2, §1, §4

Buffy M cells = assay: Survival assay (MTT), Buffy M; type: cell-based, human; settings: Normal, Bone Marrow, 72 hours
Experimental: as §2, §1, §4

[1] = tested on: Glioma, Grade IV cell lines; assay: Survival assay, panel of 12 patient derived Glioma, Grade IV cell lines; type: cell-based, human; settings: of 12 cell lines of Table 2
Experimental: as §3, §2, §1
Due to lack of activity in previous assays, 5-carboxyl-2′-deoxycytidine was not included in this more rigorous analysis.

For `Nc1nc(=O)n([C@H]2C[C@H](O)[C@@H](COP(=O)(O)OP(=O)(O)OP(=O)(O)O)O2)cc1C=O` [5-formyl-2′-deoxycytidine-5′-triphosphate], the “cytotoxicity to HeLa cells (cell survival)” value (HeLa cells; three days of treatment, MTT, up to 100 μM) was “unable to survive” and the “cytotoxicity to U87-MG cells (cell survival)” value (shortened to “cytotoxicity to U87-MG cells”) (U87-MG cells; 72 hours) was “cytotoxic”.

In the case of `Nc1nc(=O)n([C@H]2C[C@H](O)[C@@H](CO)O2)cc1Cl` [5-chloro-2′-deoxycytidine, reference compound], the IC50 (U87-MG cells; Homo sapiens, U-87 MG, 72 h) is reported as over 25 µM.

With `Nc1nc(=O)n([C@H]2C[C@H](O)[C@@H](COP(=O)(O)OP(=O)(O)OP(=O)(O)O)O2)cc1CO` [5-hydroxymethyl-2′-deoxycytidine-5′-triphosphate] the “cytotoxicity to U87-MG cells” value (U87-MG cells; 72 hours) was “cytotoxic”.

With `Nc1nc(=O)n([C@H]2C[C@H](O)[C@@H](CO)O2)cc1C(=O)O` [2d5caC, 5-carboxy-2′-deoxycytidine, reference compound] the IC50 (HCT-116 cells; Homo sapiens, HCT-116, 72 h) was over 25 µM, the IC50 (A549 cells; Homo sapiens, A549, 72 h) was over 25 µM and the IC50 (22Rv1 cells; Homo sapiens, 22Rv1, 72 h) was over 25 µM. It also gave an IC50 (NCI-N87 cells; Homo sapiens) of over 25 µM, an IC50 (MIA PaCa-2 cells; Homo sapiens, MIA PaCa-2) of over 25 µM and an IC50 (A-498 cells; Homo sapiens, A498, 72 h) of over 25 µM. The IC50 (U937 cells; Homo sapiens, U-937) was over 25 µM, the IC50 (A375 cells; Homo sapiens, A-375) was over 25 µM and the IC50 (HL-60 cells; Homo sapiens) was over 25 µM. For the same compound, the IC50 (SK-OV-3 cells; Homo sapiens) was over 25 µM, the IC50 (MCF-7 cells; Homo sapiens, MCF7) was over 25 µM and the IC50 (U2OS cells; Homo sapiens) was over 25 µM. The “cytotoxicity in the cancer cell lines evaluated” value (human cancer cell lines) was “no cytotoxic properties”, the IC50 (HeLa cells; Homo sapiens, 72 h) was over 25 µM and the IC50 (U87-MG cells; Homo sapiens, U-87 MG, 72 h) was over 25 µM.

For `COCc1cn([C@H]2C[C@H](O)[C@@H](CO)O2)c(=O)[nH]c1=O` [5-methoxymethyl-2′-deoxyuridine], the “cytotoxicity to U87-MG cells” value (U87-MG cells; 72 hours) was “unable to survive”.

For “Avastin (RTM): bevacizumab, an angiogenesis inhibitor with multiple oncology indications”, the overall survival benefit (glioblastoma multiforme) is given as “did not yield an overall survival benefit”.

`Nc1nc(=O)n([C@H]2C[C@H](O)[C@@H](CO)O2)cc1Br` [5-bromo-2′-deoxycytidine, reference compound] showed an IC50 (U87-MG cells; Homo sapiens, U-87 MG, 72 h) of over 25 µM.

`O=c1[nH]cc(F)c(=O)[nH]1` [5fU, 5-flurouracil, reference compound] gave an IC50 (HCT-116 cells) of 3.54 µM, an IC50 (A549 cells) of 1.85 µM and an IC50 (22Rv1 cells) of over 25 µM. The IC50 (NCI-N87 cells) was 1.52 µM, the IC50 (MIA PaCa-2 cells) was 8.1 µM and the IC50 (A-498 cells) was 2.37 µM. For the same compound, the IC50 (U937 cells) was 7.45 µM, the IC50 (A375 cells) was 7.87 µM and the IC50 (HL-60 cells) was over 25 µM. It also gave an IC50 (SK-OV-3 cells) of 3.76 µM, an IC50 (MCF-7 cells) of over 25 µM and an IC50 (U2OS cells) of 2.89 µM. The IC50 (G7 cells) was 6.46 µM, the IC50 (G14 cells) was 11.6 µM and the IC50 (G26 cells) was 7.12 µM. For the same compound, the IC50 (G30 cells) was 23.3 µM, the IC50 (G144 cells) was 6.8 µM and the IC50 (G166 cells) was 4.81 µM. For the same compound, the IC50 (SF188 cells) was 3.88 µM, the IC50 (U3017 cells) was 3.92 µM and the IC50 (DIPG007 cells) was 4.3 µM. It also gave an IC50 (U3013 cells) of 4.14 µM, an IC50 (CB152 cells) of 6.5 µM and an IC50 (Arpe19 cells) of over 25 µM. It also gave an IC50 (HaCat cells) of 0.523 µM, an IC50 (MRC5 cells) of over 25 µM and an IC50 (Buffy A cells) of over 25 µM. For the same compound, the IC50 (Buffy C cells) was over 25 µM, the IC50 (Buffy M cells) was over 25 µM and the “number of Glioma, Grade IV cell lines killed” value [1] was 11 of 12. It also gave an IC50 (HeLa cells; Cervical Adenocarcinoma, 72 hours, MTT) of over 25 µM and an IC50 (U87-MG cells; 72 hours) of over 25 µM.

With `Nc1nc(=O)n([C@H]2C[C@H](O)[C@@H](CO)O2)cc1I` [5-iodo-2′-deoxycytidine, reference compound] the IC50 (U87-MG cells; Homo sapiens, U-87 MG, 72 h) was over 25 µM.

In the case of `CC(=O)OCc1cn([C@H]2C[C@H](O)[C@@H](CO)O2)c(=O)[nH]c1=O` [5-acetoxymethyl-2′-deoxyuridine], the “cytotoxicity to U87-MG cells” value (U87-MG cells; 72 hours) is reported as “unable to survive”.
